One test addresses T1, PDE3A (Homo sapiens, UniProt Q14432).
T1 construct: purchased Sino Biological 11908-H20B1
Nature of the test: PDE3A fluorescence polarization (FP) assay. In kind it is biochemical. The conditions noted are these: 2 nM PDE3A, 0.2 μM FAM-cAMP, read-out: IC50 (μM), PDE3A enzyme activity. As for the experimental part:
A PDE3A fluorescence polarization (FP) assay in a multi-step format was performed using black, round bottom 384-well plates (Corning, 4514). The testing compounds were serially diluted from stock solutions to 11 concentrations with a 3-fold dilution factor using DMSO. Fifty nL of compound dilutions was mixed with 5 μL of reaction buffer (10 mM Tris-HCl, pH 7.2, 10 mM MgCl2, 0.05% NaN3, 0.1% phosphate-free BSA) containing 0.2 μM FAM-cAMP (BPS, 60200) and 2 nM PDE3A (Sino Biological, 11908-H20B1) enzyme, and incubated for 60 min at 25° C. Afterwards, 15 μL binding agent mixture (Molecular Devices, R8124) was added to each well and the plate was incubated for 60 min at 25° C. The plate was loaded to a BMG PHERAstar FSX to read Fluorescence Polarization (FP) values at a setting of: Ex: 485 nm and Em: 520 nm. Emission light intensity with polarizers parallel (Em|) and emission light intensity with polarizers perpendicular (Em⊥) were recorded. The Polarization (mP) values were calculated using the following formula: mP=(SignalEm|−SignalEm⊥)/(SignalEm|+SignalEm⊥).
Data analysis: • 1) The inhibition % of a compound dose is calculated as:
[formula] • wherein mPMin and mPMax refer to the polarization readings in the condition of substrate only and substrate+enzyme, respectively. • 2) The IC50 values were calculated from non-linear curve fitting using following regression equation using a commercial curve fitting software GraphPad Prism 9.2.0.
wherein X refers to Log of compound concentration and Y refers to % Inhibition.
Table 3 summarize the inhibitory effects of compounds on PDE3A enzyme activity (IC50).
(In fluorescence polarisation assays a small probe gives low polarisation when free and higher when bound to something large.)

The next test has as its system MDA-MB-436 cells. Nature of the test: Growth inhibition assay against BRCA mutant human breast cancer MDA-MB-436 cell line (CCK-8, 7 days). It counts as cell-based. The conditions noted are these: 168 h, MDA-MB-436, 7 days, read-out: IC50 (nM), proliferation of human breast cancer cells MDA-MB-436. As for the experimental part:
The cells were cultured in complete medium (DMEM medium+10% FBS+Insulin+glutathione). When the confluence reached about 80%, cells were digested and gently dispensed from the bottom of the dish with a 1 mL pipette. Cell suspension was collected and centrifuged at 500 rpm for 3 min. The supernatant was discarded, and the cell pellet were re-suspended in complete medium. The cells were seeded into a culture dish at an appropriate proportion, and then cultured in a 5% CO2 incubator at 37° C. The assay was carried out when the cells were in optimum condition and the confluence was reached 80%. Cells in the logarithmic growth phase were taken to centrifugate, and the culture supernatant was removed. The cells were resuspended in refresh complete medium and counted. The resuspended cells were seeded at 3000/well in a 96-well plate and incubated at 37° C., 5% CO2 incubator overnight. […] The solution was mixed by oscillation. 0.10% DMSO was used as the control.
The next day, the 96-well plate inoculated with cells was taken out from the incubator, and the culture supernatant was removed. Then fresh medium of 195 uL/well and 5 μL/well of 40× test compound solution as mentioned above were added into the 96 well plate, respectively. Finally, the plate was incubated for 7 days in a 37° C. 5% CO2 incubator. The medium containing compound was changed on the fourth day. After 7 days, 20 μL of CCK-8 was added to each well and shaken gently, then was cultured for 4 hours. The plate was shaken for 5 min after incubation, the absorbance values of 450 nm or 650 nm wavelengths were recorded respectively (OD=absorbance value of 450 nm−absorbance value of 650 nm) by using the multifunction readout instrument.
Data were analyzed by software GraphPad Prism 6.0. The inhibitory activity of compounds on cell proliferation was plotted using cell survival rate against the compound concentration as coordinates. Cell survival rate %=(ODcompound−ODbackground)/(ODDMSO−ODbackground)×100.
Table 2 summarizes the inhibitory effect data (IC50) of the compounds on the proliferation of human breast cancer cells MDA-MB-436.

Test [1] has as its target recombinant poly(ADP-ribose) polymerase 2 (PARP2) (Homo sapiens, UniProt Q9UGN5). Nature of the test: PARP2 chemiluminescent assay. In kind it is biochemical. The following applies: PARP2 enzyme activity, chemiluminescence, 40 ng enzyme/well. The protocol: The solution of recombinant poly(ADP-ribose) polymerase 1 and 2 (PARP1 and PARP2) (40 ng enzyme/well) and the compounds to be tested were mixed, respectively. The solutions were added to a 96-well plate coated with histone mixture, incubated at room temperature for 1 h, then 50 μL 0.3 ng/mL Streptavidin-HRP was added to each well. The plates were incubated for 30 minutes at room temperature. Finally, the plates were treated with streptavidin-HRP followed by addition of the ELISA ECL substrate to produce chemiluminescence that can be measured using a chemiluminescence reader. Inhibition of the tested compound to PARP1/2 enzyme activity was calculated according to the following formula. [formula] IC50 value is obtained by fitting the s-shaped dose response curve equation by using XL Fit software.

SMILES strings stand for the structures.

Chain of recombinant poly(ADP-ribose) polymerase 2 (PARP2) (Q9UGN5 whole entry): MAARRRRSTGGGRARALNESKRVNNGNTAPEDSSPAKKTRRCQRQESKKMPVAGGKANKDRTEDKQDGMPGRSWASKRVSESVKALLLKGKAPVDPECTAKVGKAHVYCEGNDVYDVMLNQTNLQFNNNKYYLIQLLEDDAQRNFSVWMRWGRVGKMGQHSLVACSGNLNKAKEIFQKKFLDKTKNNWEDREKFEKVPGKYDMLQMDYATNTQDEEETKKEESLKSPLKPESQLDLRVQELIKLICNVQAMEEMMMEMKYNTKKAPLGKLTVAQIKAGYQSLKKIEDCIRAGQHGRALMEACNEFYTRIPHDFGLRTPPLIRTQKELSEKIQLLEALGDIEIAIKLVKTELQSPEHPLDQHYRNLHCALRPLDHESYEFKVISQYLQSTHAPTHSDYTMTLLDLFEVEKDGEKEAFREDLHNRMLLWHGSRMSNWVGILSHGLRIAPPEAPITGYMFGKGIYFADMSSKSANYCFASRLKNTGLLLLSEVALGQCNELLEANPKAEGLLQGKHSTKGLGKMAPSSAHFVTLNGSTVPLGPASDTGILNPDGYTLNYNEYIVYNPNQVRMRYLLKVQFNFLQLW
T1 sequence (Q14432 669-1141 limits assumed): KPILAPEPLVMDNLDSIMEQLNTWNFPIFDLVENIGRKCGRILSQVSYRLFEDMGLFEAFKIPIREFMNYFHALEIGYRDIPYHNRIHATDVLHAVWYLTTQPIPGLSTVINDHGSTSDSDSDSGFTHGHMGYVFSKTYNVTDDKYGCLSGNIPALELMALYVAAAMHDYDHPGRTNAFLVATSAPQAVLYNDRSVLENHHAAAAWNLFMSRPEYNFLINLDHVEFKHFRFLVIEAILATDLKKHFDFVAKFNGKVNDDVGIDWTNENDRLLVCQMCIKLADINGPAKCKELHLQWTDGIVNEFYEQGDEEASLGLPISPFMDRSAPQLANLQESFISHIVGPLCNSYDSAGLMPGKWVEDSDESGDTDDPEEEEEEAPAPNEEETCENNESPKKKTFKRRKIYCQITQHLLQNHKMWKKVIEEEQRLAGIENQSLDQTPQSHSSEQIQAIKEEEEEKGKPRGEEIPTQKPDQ

On to `CNC(=O)c1ccc(-n2cc3c(n2)CN(Cc2ccc4c([nH]c(=O)c5c(C)cnn54)c2F)C3)cn1` [Example 1-1, 5-(5-((6-fluoro-3-methyl-4-oxo-4,5-dihydropyrazolo[1,5-a]quinoxalin-7-yl)methyl)-5,6-dihydropyrrolo[3,4-c]pyrazol-2(4H)-yl)-N-methylpicolinamide], for which the IC50 at PDE3A was above 30 µM; in the test with MDA-MB-436 cells, 2.13 nM.

With `Cc1cnn2c1c(=O)[nH]c1c(F)c(CN3Cc4cn(-c5ccc(C(=O)NC6CC6)nc5)nc4C3)ccc12` [Example 8, 5-(5-((6-fluoro-3-methyl-4-oxo-4,5-dihydropyrazolo[1,5-a]quinoxalin-7-yl)methyl)-5,6-dihydropyrrolo[3,4-c]pyrazol-2(4H)-yl)-N-cyclopropylpicolinamide], the IC50 on PDE3A is above 30 µM; in the test with MDA-MB-436 cells, 4.11 nM.

Consider `CNC(=O)c1ccc(-n2cc3c(n2)CCN(Cc2ccc4c([nH]c(=O)c5c(C)cnn54)c2F)C3)c(C)n1` [Example 11, 5-(5-((6-fluoro-3-methyl-4-oxo-4,5-dihydropyrazolo[1,5-a]quinoxalin-7-yl)methyl)-4,5,6,7-tetrahydro-2H-pyrazolo[4,3-c]pyridin-2-yl)-N,6-dimethylpicolinamide], for which the values for the IC50 on PDE3A and in the test on MDA-MB-436 cells were above 30 µM and above 100 nM, respectively.

As to `CNC(=O)c1ccc(-n2cc3c(n2)CCN(Cc2ccc4c([nH]c(=O)c5c(C)cnn54)c2F)C3)c(F)n1` [Example 12, 5-(5-((6-fluoro-3-methyl-4-oxo-4,5-dihydropyrazolo[1,5-a]quinoxalin-7-yl)methyl)-4,5,6,7-tetrahydro-2H-pyrazolo[4,3-c]pyridin-2-yl)-6-fluoro-N-methylpicolinamide], the IC50 at PDE3A is above 30 µM; with MDA-MB-436 cells, above 100 nM.

In the case of `CNC(=O)c1ccc(-n2cc3c(n2)CN(Cc2ccc4c([nH]c(=O)c5c(F)cnn54)c2F)C3)c(C)n1` [Example 14, 5-(5-((3,6-difluoro-4-oxo-4,5-dihydropyrazolo[1,5-a]quinoxalin-7-yl)methyl)-5,6-dihydropyrrolo[3,4-c]pyrazol-2(4H)-yl)-N,6-dimethylpicolinamide], the IC50 on PDE3A was above 30 µM; in the test with MDA-MB-436 cells it was 5.06 nM.

As to `CCNC(=O)c1ccc(-n2cc3c(n2)CN(Cc2ccc4c([nH]c(=O)c5c(F)cnn54)c2F)C3)cn1` [Example 18, 5-(5-((3,6-difluoro-4-oxo-4,5-dihydropyrazolo[1,5-a]quinoxalin-7-yl)methyl)-5,6-dihydropyrrolo[3,4-c]pyrazol-2(4H)-yl)-N-ethylpicolinamide], the IC50 was above 30 µM on PDE3A and 0.59 nM with MDA-MB-436 cells.

As to `CNC(=O)c1ccc(-n2cc3c(n2)CN(Cc2ccc4c([nH]c(=O)c5c(C(F)(F)F)cnn54)c2F)C3)c(F)n1` [Example 26, 5-(5-((6-fluoro-4-oxo-3-(trifluoromethyl)-4,5-dihydropyrazolo[1,5-a]quinoxalin-7-yl)methyl)-5,6-dihydropyrrolo[3,4-c]pyrazol-2(4H)-yl)-6-fluoro-N-methylpicolinamide], the IC50 was 64 nM in test [1] and 13 nM in the test with MDA-MB-436 cells.

`CNC(=O)c1ccc(-n2cc3c(n2)CN(Cc2ccc4c([nH]c(=O)c5cc(F)nn54)c2F)C3)cn1` [Example 27, 5-(5-((2,6-difluoro-4-oxo-4,5-dihydropyrazolo[1,5-a]quinoxalin-7-yl)methyl)-5,6-dihydropyrrolo[3,4-c]pyrazol-2(4H)-yl)-N-methylpicolinamide]: the IC50 on PDE3A is above 30 µM; in the test with MDA-MB-436 cells, 1.44 nM.

With `CNC(=O)c1ccc(-c2nc3c([nH]2)CN(Cc2ccc4c([nH]c(=O)c5c(C)cnn54)c2F)C3)cn1` [Example 34, 5-(5-((6-fluoro-3-methyl-4-oxo-4,5-dihydropyrazolo[1,5-a]quinoxalin-7-yl)methyl)-1,4,5,6-tetrahydropyrrolo[3,4-d]imidazol-2-yl)-N-methylpicolinamide], the results for the IC50 (in test [1]; in the test on MDA-MB-436 cells) were 40 nM and 3.33 nM, respectively.

`CNC(=O)c1ccc(-c2nc3c(o2)CN(Cc2ccc4c([nH]c(=O)c5c(F)cnn54)c2F)C3)cn1` [Example 41, 5-(5-((3,6-difluoro-4-oxo-4,5-dihydropyrazolo[1,5-a]quinoxalin-7-yl)methyl)-5,6-dihydro-4H-pyrrolo[3,4-d]oxazol-2-yl)-N-methylpicolinamide]: the IC50 amounted to 61.1 nM in test [1] and 1.6 nM with MDA-MB-436 cells.

For the compound `CNC(=O)c1ccc(-c2nc3c([nH]2)CN(Cc2ccc4c([nH]c(=O)c5c(F)cnn54)c2F)C3)cn1` [Example 43, 5-(5-((3,6-difluoro-4-oxo-4,5-dihydropyrazolo[1,5-a]quinoxalin-7-yl)methyl)-1,4,5,6-tetrahydropyrrolo[3,4-d]imidazol-2-yl)-N-methylpicolinamide], the figures for the IC50 (in test [1]; in the test with MDA-MB-436 cells) were 5.18 nM and 2.84 nM, respectively.

Take `CCNC(=O)c1ccc(-n2cc3c(n2)CN(Cc2ccc4c([nH]c(=O)n5cc(C)nc45)c2F)C3)cn1` [Example 50, N-ethyl-5-(5-((7-fluoro-2-methyl-5-oxo-5,6-dihydroimidazo[1,2-c]quinazolin-8-yl)methyl)-5,6-dihydropyrrolo[3,4-c]pyrazol-2(4H)-yl)picolinamide]: the results for the IC50 (in test [1]; in the test with MDA-MB-436 cells) were 180 nM and 1.01 nM, respectively.

Take `CCNC(=O)c1ccc(-n2cc3c(n2)CN(Cc2ccc4c([nH]c(=O)c5occc54)c2F)C3)cn1` [Example 53, N-ethyl-5-(5-((6-fluoro-4-oxo-4,5-dihydrofuro[2,3-c]quinolin-7-yl)methyl)-5,6-dihydropyrrolo[3,4-c]pyrazol-2(4H)-yl)picolinamide]: the IC50 in test [1] was 157 nM; in the test with MDA-MB-436 cells it was 1.21 nM.

With `CNC(=O)c1ccc(-n2cc3c(n2)CN(Cc2ccc4c([nH]c(=O)c5cc(F)nn54)c2F)C3)c(F)n1` [Example 56, 5-(5-((2,6-difluoro-4-oxo-4,5-dihydropyrazolo[1,5-a]quinoxalin-7-yl)methyl)-5,6-dihydropyrrolo[3,4-c]pyrazol-2(4H)-yl)-6-fluoro-N-methylpicolinamide], the IC50 in test [1] was found to be 2760 nM; with MDA-MB-436 cells, 4.66 nM.

As to `CNC(=O)c1ccc(-n2cc3c(c2)CN(Cc2ccc4c([nH]c(=O)c5c(F)cnn54)c2F)C3)c(F)n1` [Example 62, 5-(5-((3,6-difluoro-4-oxo-4,5-dihydropyrazolo[1,5-a]quinoxalin-7-yl)methyl)-5,6-dihydropyrrolo[3,4-c]pyrrol-2(4H)-yl)-6-fluoro-N-methylpicolinamide], the IC50 was 278 nM in test [1] and 0.44 nM in the test with MDA-MB-436 cells.

On to `CNC(=O)c1ccc(-n2cc3c(c2)CN(Cc2ccc4c([nH]c(=O)c5c(C)cnn54)c2F)C3)c(F)n1` [Example 63, 6-fluoro-5-(5-((6-fluoro-3-methyl-4-oxo-4,5-dihydropyrazolo[1,5-a]quinoxalin-7-yl)methyl)-5,6-dihydropyrrolo[3,4-c]pyrrol-2(4H)-yl)-N-methylpicolinamide], for which the IC50 in test [1] is above 10000 nM; with MDA-MB-436 cells, 0.85 nM.

For the origin of these results see US20260265256A1 (IMPACT THERAPEUTICS (SHANGHAI), INC., priority 2023, published 2026).
